Reference: patent publication US8802864B2, “Triazolones as fatty acid synthase inhibitors” (GlaxoSmithKline LLC, priority 2010, dated 2014)

What follows are compounds tested against T1, FAS (Homo sapiens (Human), UniProt P49327) (assay: biochemical). Settings: not given.
T1 sequence (P49327 whole entry): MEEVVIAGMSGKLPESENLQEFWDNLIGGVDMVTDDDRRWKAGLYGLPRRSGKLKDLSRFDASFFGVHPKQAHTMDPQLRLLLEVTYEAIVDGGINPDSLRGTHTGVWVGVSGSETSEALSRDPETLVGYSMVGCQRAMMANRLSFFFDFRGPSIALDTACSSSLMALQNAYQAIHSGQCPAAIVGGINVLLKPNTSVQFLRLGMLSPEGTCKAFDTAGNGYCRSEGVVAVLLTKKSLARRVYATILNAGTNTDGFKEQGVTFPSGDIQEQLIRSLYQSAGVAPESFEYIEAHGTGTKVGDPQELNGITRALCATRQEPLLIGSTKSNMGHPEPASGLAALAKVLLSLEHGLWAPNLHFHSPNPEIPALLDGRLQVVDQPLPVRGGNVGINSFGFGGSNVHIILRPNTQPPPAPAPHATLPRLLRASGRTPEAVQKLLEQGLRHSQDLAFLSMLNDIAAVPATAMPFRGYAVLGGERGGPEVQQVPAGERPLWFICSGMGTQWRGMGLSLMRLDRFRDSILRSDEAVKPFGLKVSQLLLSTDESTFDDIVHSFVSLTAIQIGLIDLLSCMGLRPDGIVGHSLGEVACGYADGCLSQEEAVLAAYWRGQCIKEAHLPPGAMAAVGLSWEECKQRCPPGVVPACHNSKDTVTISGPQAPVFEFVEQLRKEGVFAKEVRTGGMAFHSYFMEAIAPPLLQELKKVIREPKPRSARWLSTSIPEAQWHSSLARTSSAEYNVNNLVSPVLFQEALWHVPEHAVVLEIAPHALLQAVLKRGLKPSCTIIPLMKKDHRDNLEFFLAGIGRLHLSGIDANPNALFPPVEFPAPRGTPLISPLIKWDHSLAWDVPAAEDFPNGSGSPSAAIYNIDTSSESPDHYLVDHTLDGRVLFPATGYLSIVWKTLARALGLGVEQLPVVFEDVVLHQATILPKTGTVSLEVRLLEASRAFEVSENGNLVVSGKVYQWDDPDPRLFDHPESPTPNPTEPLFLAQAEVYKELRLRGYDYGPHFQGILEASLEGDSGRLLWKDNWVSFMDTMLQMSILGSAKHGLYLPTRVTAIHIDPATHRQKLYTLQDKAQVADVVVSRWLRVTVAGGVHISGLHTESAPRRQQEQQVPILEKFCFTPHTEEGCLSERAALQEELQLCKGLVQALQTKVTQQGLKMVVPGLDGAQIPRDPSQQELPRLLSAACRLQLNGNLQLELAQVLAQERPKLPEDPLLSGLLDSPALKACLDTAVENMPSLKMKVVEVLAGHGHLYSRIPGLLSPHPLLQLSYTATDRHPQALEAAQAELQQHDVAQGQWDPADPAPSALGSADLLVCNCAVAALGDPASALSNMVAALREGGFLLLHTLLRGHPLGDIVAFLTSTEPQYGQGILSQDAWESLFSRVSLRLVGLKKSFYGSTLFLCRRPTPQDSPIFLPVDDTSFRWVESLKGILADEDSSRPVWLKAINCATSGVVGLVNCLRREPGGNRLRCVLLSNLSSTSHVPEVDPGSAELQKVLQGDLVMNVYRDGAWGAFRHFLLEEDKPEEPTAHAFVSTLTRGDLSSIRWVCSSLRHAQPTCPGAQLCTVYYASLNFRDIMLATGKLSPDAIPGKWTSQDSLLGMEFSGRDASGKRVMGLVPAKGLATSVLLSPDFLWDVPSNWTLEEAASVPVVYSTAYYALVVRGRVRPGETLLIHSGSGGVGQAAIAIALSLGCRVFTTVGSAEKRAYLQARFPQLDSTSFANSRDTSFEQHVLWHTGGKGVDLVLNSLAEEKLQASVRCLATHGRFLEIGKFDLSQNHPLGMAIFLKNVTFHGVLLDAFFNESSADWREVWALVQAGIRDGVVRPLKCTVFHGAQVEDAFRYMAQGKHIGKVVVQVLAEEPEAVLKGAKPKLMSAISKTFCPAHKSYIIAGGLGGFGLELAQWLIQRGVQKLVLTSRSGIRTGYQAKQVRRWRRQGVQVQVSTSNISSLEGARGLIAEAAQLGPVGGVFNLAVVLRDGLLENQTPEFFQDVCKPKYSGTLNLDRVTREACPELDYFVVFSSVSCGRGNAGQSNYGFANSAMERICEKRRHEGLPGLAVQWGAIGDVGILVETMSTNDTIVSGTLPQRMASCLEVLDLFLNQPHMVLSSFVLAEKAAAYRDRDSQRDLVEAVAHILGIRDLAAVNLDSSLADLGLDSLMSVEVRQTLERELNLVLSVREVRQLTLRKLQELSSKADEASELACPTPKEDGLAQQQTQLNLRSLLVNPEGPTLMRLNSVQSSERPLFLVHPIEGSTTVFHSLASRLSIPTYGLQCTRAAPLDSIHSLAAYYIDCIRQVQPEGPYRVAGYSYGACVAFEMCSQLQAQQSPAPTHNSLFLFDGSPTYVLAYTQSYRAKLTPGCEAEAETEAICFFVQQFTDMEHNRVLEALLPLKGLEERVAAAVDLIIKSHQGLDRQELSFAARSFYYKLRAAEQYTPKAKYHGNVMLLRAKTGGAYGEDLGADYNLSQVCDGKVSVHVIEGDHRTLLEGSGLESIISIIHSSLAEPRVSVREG

| IC50 [µM] | Compound |
| --- | --- |
| 0.126 | N#Cc1ccc(-c2ccc(-n3c(C[C@@H]4CCN(C(=O)C5CC5)C4)n[nH]c3=O)cc2)cc1 [Example 4, 4′-(3-{[(3S)-1-(cyclopropylcarbonyl)-3-pyrrolidinyl]methyl}-5-oxo-1,5-dihydro-4H-1,2,4-triazol-4-yl)-4-biphenylcarbonitrile] |

These compounds were tested against T1, FAS (assay: not given). Settings: inhibition of FAS; tested by one of the two FAS assays; value from at least one experiment or the average of multiple experiments.

| Compound | IC50 [µM] |
| --- | --- |
| Cn1nc(C[C@@H]2CCN(C(=O)C3CC3)C2)n(-c2ccc(-c3ccc4occc4c3)cc2)c1=O [Example 7, 4-[4-(1-benzofuran-5-yl)phenyl]-5-{[(3S)-1-(cyclopropylcarbonyl)-3-pyrrolidinyl]methyl}-2-methyl-2,4-dihydro-3H-1,2,4-triazol-3-one] | 0.02 |
| O=C(C1CC1)N1CC[C@@H](Cc2n[nH]c(=O)n2-c2ccc(-c3ccc4c(c3)OCO4)cc2)C1 [Example 38, 4-[4-(1,3-benzodioxol-5-yl)phenyl]-5-{[(3S)-1-(cyclopropylcarbonyl)-3-pyrrolidinyl]methyl}-2,4-dihydro-3H-1,2,4-triazol-3-one] | 0.158 |
| CN(C)Cc1ccc(-c2ccc(-n3c(C[C@@H]4CCN(C(=O)C5CC5)C4)n[nH]c3=O)cc2)cc1 [Example 95, 5-{[(3S)-1-(cyclopropylcarbonyl)-3-pyrrolidinyl]methyl}-4-{4′-[(dimethylamino)methyl]-4-biphenylyl}-2,4-dihydro-3H-1,2,4-triazol-3-one] | 0.2 |
| COc1ccc(-c2ccc(-n3c(C[C@@H]4CCN(C(=O)C5CC5)C4)n[nH]c3=O)c(F)c2)cc1 [Example 116, 5-{[(3S)-1-(cyclopropylcarbonyl)-3-pyrrolidinyl]methyl}-4-[3-fluoro-4′-(methyloxy)-4-biphenylyl]-2,4-dihydro-3H-1,2,4-triazol-3-one] | 0.04 |
| CC(=O)Nc1ccc(-c2ccc(-n3c(C[C@@H]4CCN(C(=O)C5CC5)C4)n[nH]c3=O)c(F)c2)cc1 [Example 158, N-[4′-(3-{[(3S)-1-(cyclopropylcarbonyl)-3-pyrrolidinyl]methyl}-5-oxo-1,5-dihydro-4H-1,2,4-triazol-4-yl)-3′-fluoro-4-biphenylyl]acetamide] | 0.398 |

The next lines start with the values.

| IC50 [µM] | Compound |
| --- | --- |
| 0.016 | O=C(C1CC1)N1CC(Cc2n[nH]c(=O)n2-c2ccc(-c3ccc4cc[nH]c4c3)cc2)C1 [Example 67, 5-{[1-(cyclopropylcarbonyl)-3-azetidinyl]methyl}-4-[4-(1H-indol-6-yl)phenyl]-2,4-dihydro-3H-1,2,4-triazol-3-one] |
| 0.013 | Cn1cnc2cc(-c3ccc(-n4c(C[C@@H]5CCN(C(=O)C6CC6)C5)n[nH]c4=O)cc3)ccc21 [Example 23, 5-{[(3S)-1-(cyclopropylcarbonyl)-3-pyrrolidinyl]methyl}-4-[4-(1-methyl-1H-benzimidazol-5-yl)phenyl]-2,4-dihydro-3H-1,2,4-triazol-3-one] |
| 0.006 | O=C(C1CC1)N1CC[C@@H](Cc2n[nH]c(=O)n2-c2ccc(-c3ccc4ccoc4c3)cc2)C1 [Example 14, 4-[4-(1-benzofuran-6-yl)phenyl]-5-{[(3S)-1-(cyclopropylcarbonyl)-3-pyrrolidinyl]methyl}-2,4-dihydro-3H-1,2,4-triazol-3-one] |
| 0.005 | Cc1cc(-c2ccc3cc[nH]c3c2)ccc1-n1c(C[C@@H]2CCN(C(=O)C3CC3)C2)n[nH]c1=O [Example 42, 5-{[(3S)-1-(cyclopropylcarbonyl)-3-pyrrolidinyl]methyl}-4-[4-(1H-indol-6-yl)-2-methylphenyl]-2,4-dihydro-3H-1,2,4-triazol-3-one] |
| 0.003 | O=C(C1CC1)N1CC[C@@H](Cc2n[nH]c(=O)n2-c2ccc(-c3ccc4cnccc4c3)cc2F)C1 [Example 132, 5-{[(3S)-1-(cyclopropylcarbonyl)-3-pyrrolidinyl]methyl}-4-[2-fluoro-4-(6-isoquinolinyl)phenyl]-2,4-dihydro-3H-1,2,4-triazol-3-one] |
